# In ChEMBL document CHEMBL1201862, “PubChem BioAssay data set” (2004):
# Activity calls are given as the source filed them.
# Legend:
# [1] = molecular target: Peroxisome proliferator-activated receptor gamma/Nuclear receptor coactivator 1 (Homo sapiens, UniProt P37231); test: (§1) TR-FRET dose response biochemical High Throughput Screening assay for agonists of the steroid receptor coactivator 1 (SRC-1) recruitment by the peroxisome proliferator-activated receptor gamma (PPAR gamma): non-selective agonists. [Related pubchem assays (depositor defined):AID1300, AID1808, AID504735, AID631]; assay type: protein assay
# [2] = molecular target: Peroxisome proliferator-activated receptor gamma/Nuclear receptor coactivator 3 (Homo sapiens, UniProt P37231); test: as §1, with “3 (SRC-3)” for “1 (SRC-1)”, “assays: 1301 (Confirmation screen.), 1048 (Primary screen.)]” for “assays (depositor defined):AID1300, AID1808, AID504735, AID631]”; assay type: functional
# [3] = molecular target: T1, Replicative DNA helicase DnaB (Mycobacterium tuberculosis, UniProt P9WMR3); test: DnaB intein splicing inhibitors, dose response, biochemical, cell-free fluorescence (AID 449749); assay type: functional
# T1 sequence (P9WMR3 whole entry): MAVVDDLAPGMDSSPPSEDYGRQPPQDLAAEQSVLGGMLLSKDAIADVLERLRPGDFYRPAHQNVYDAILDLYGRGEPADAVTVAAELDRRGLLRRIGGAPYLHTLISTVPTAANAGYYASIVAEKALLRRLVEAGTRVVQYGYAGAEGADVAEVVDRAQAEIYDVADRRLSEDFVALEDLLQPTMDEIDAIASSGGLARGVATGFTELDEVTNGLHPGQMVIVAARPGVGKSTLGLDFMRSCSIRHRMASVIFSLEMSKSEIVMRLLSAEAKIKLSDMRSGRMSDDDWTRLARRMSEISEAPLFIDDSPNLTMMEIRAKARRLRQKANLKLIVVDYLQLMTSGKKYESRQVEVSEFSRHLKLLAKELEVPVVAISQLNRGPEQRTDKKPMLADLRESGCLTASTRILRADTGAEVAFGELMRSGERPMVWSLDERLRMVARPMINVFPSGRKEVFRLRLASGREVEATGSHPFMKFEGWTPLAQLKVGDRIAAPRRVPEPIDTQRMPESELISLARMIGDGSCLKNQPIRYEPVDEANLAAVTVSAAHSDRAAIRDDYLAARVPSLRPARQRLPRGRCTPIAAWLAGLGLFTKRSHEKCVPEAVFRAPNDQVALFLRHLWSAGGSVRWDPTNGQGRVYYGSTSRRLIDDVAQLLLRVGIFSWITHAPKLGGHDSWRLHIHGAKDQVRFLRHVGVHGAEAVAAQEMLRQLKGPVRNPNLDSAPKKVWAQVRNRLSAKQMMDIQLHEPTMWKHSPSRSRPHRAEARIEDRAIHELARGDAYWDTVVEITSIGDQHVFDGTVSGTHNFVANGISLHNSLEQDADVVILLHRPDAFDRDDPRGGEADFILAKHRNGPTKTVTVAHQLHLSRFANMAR
# Protein RecA = molecular target: T2, Protein RecA (Mycobacterium tuberculosis, UniProt P9WHJ3); test: Fluorescence Cell-Free Homogeneous Dose Retest to Identify Inhibitors of RecA-Intein Splicing Activity. [Related pubchem assays (depositor defined):AID2097, AID2223, AID489010, AID492950]; assay type: functional
# T2 sequence (P9WHJ3 whole entry): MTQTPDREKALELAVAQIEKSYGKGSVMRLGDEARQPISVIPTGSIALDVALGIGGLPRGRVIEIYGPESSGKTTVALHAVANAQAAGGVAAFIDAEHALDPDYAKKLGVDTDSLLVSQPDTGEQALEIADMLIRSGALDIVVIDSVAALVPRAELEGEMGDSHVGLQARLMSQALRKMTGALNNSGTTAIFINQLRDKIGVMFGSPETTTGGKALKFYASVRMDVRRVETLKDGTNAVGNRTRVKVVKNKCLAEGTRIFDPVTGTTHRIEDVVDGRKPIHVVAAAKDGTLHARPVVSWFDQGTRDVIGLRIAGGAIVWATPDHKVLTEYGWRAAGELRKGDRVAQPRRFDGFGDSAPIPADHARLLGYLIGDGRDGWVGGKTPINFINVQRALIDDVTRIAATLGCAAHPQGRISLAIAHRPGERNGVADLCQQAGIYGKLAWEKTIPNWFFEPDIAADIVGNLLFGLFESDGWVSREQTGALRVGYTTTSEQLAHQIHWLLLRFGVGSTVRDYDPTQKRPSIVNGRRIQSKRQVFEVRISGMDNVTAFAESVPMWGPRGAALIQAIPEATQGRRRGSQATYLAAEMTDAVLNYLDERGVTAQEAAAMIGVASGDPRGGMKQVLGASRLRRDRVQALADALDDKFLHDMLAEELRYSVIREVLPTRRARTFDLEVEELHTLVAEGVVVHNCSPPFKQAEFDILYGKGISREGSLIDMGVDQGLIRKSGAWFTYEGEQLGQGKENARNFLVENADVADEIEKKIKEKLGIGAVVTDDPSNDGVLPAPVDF
# [4] = molecular target: T3, Endoribonuclease toxin MazF (Escherichia coli K-12, UniProt P0AE70); test: substrate-only fluorescence increase artefacts – biochemical, single-stranded RNase substrate, counter-screen for MazEF activator project, dose response (AID 588502); assay type: functional
# T3 sequence (P0AE70 whole entry): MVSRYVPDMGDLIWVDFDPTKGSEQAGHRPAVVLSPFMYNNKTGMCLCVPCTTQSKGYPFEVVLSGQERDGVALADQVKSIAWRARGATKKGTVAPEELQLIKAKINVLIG
# [5] = molecular target: T3, Endoribonuclease toxin MazF; test: activation of MazEF endoribonuclease cleavage – biochemical, fluorescence, single-stranded RNA substrate, uHTS hits, dose response (AID 588481); assay type: functional
# Vero = test: viability of Vero cells under compound – cytotoxicity control for flavivirus capping enzyme inhibitors (AID 588742); assay type: functional; details: Chlorocebus sabaeus
# [6] = protection from phage-mediated lysis, alamar blue read-out – E. coli UTI89, K1F phage, bacterial capsule biogenesis inhibitors (AID 488966); assay type: functional
# Large T antigen = Large T antigen (Simian virus 40, UniProt P03070); assay type: functional, Betapolyomavirus macacae;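 note: Confirmatory-stage PubChem screen for compounds that inhibit SV40 T antigen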
# Chain of Large T antigen (P03070 whole entry): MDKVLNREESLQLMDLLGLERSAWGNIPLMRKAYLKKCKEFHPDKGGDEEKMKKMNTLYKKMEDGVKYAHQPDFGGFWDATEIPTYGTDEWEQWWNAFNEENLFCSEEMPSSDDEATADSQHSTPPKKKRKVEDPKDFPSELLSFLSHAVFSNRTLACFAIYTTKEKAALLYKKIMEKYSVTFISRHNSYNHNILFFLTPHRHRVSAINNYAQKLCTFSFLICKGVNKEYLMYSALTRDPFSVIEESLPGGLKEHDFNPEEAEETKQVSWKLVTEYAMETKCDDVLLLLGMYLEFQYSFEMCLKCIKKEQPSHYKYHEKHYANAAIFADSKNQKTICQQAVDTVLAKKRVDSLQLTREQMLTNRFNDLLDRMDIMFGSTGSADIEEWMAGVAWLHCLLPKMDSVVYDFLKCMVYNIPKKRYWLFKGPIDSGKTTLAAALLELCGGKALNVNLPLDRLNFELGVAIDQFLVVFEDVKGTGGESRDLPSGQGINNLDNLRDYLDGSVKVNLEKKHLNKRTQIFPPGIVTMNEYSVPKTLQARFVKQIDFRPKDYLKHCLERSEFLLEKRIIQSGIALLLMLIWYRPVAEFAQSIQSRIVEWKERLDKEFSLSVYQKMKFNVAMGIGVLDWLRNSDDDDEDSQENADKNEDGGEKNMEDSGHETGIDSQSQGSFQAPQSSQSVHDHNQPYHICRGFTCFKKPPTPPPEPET
# [7] = molecular target: Peroxisome proliferator-activated receptor gamma/Nuclear receptor coactivator 2 (Homo sapiens, UniProt P37231); test: TR-FRET dose response biochemical High Throughput Screening assay for agonists of the steroid receptor coactivator 2 (SRC-2) recruitment by the peroxisome proliferator-activated receptor gamma (PPAR gamma): non-selective agonists. [Related pubchem assays: 1297, 1032 ]; assay type: functional
# Chain of Peroxisome proliferator-activated receptor gamma/Nuclear receptor coactivator 2 (P37231 whole entry): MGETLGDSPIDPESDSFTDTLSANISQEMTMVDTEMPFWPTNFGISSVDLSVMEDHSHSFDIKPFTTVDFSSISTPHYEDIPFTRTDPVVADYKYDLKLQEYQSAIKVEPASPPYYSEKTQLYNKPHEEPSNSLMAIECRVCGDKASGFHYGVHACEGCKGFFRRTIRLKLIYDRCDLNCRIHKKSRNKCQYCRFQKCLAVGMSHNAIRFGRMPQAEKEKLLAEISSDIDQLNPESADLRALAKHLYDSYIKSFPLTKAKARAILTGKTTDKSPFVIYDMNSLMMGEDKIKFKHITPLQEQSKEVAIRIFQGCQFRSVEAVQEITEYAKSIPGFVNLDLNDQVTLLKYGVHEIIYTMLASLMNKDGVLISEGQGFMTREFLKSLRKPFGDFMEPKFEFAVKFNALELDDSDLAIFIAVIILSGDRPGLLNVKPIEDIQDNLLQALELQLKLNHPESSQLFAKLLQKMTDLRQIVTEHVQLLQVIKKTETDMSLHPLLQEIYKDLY
# Chain of Peroxisome proliferator-activated receptor gamma/Nuclear receptor coactivator 2 (Q15596 whole entry, further chain): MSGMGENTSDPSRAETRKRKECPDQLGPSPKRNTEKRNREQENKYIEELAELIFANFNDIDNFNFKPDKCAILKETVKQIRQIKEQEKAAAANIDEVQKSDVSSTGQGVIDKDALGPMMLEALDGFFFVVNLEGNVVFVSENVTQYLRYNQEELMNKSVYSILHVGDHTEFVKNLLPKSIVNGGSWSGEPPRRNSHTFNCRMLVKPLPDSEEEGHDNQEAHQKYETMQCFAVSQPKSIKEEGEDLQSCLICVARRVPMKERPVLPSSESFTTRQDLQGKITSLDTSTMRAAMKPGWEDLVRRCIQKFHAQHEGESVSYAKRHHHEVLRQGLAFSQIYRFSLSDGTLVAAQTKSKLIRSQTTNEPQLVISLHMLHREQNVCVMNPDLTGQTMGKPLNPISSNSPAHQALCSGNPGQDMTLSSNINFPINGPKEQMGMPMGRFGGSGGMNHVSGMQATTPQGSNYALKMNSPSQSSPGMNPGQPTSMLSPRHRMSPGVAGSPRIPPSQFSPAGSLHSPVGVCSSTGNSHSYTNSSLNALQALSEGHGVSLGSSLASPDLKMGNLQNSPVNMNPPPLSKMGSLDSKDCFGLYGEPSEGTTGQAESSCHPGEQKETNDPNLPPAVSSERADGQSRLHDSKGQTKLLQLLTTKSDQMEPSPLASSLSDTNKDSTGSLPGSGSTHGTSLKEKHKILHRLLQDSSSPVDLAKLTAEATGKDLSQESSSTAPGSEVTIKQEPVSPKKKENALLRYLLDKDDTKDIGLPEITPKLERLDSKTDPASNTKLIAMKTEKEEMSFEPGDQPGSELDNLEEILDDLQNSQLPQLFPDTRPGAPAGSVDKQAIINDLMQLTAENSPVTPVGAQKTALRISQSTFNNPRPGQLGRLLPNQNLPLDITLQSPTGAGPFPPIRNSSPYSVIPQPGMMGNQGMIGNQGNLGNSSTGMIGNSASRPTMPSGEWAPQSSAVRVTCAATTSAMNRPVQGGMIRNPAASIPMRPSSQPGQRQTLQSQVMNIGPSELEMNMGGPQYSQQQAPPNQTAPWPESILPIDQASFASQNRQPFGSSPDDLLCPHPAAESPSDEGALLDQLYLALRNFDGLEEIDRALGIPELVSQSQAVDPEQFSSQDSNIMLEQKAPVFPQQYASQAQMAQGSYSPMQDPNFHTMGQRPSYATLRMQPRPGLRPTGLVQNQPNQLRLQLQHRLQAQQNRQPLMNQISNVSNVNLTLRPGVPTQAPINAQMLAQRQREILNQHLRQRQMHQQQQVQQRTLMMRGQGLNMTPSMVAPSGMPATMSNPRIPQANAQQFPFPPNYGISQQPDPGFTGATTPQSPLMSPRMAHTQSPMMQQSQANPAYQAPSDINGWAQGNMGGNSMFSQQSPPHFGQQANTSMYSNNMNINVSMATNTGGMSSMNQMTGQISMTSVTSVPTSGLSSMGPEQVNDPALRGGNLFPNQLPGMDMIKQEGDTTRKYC
# [8] = molecular target: Heat shock protein HSP 90-alpha (Homo sapiens, UniProt P07900); assay type: functional, organism-based
# X-box-binding protein 1 = X-box-binding protein 1 (Homo sapiens, UniProt P17861); assay type: functional, Cricetulus griseus;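 note: confirmatory dose-response counter-screen serving a CHOP assay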
# Chain of X-box-binding protein 1 (P17861 whole entry): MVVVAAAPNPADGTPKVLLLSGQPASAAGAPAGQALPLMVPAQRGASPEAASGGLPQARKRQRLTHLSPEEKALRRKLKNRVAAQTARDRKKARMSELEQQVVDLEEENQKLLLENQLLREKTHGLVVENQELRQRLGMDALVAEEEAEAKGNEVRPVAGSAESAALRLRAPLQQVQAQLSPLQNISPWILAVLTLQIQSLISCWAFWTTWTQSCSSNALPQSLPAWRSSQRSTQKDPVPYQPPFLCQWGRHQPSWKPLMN
# [9] = molecular target: Bifunctional protein GlmU (Mycobacterium tuberculosis, UniProt P9WMN3); test: Inhibitors of Mycobacterial Glucosamine-1-phosphate acetyl transferase (GlmU). Secondary screen.; parameters: species or system Mycobacterium tuberculosis H37Rv
# Chain of Bifunctional protein GlmU (P9WMN3 whole entry): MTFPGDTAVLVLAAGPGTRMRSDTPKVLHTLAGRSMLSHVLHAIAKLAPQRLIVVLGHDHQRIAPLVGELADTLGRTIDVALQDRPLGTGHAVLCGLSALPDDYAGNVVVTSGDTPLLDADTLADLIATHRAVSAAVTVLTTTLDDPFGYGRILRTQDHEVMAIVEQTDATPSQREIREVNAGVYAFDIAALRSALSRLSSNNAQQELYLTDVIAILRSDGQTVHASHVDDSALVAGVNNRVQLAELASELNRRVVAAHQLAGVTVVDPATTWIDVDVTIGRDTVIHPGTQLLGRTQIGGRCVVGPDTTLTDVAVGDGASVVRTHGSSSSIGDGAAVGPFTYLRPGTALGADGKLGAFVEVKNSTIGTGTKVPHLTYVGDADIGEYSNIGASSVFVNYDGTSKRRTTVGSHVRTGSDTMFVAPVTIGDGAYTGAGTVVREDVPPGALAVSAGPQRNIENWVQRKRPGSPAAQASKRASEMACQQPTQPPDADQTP
# BJ [10] = test: growth inhibition of engineered Ras-driven BJ cells – cell-based, alamar blue fluorescence, cherrypicked samples, dose response (AID 2631); assay type: functional; details: Homo sapiens;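 note: confirmatory dose-response assay in RAS-dependent BJ fibroblasts engineered with TERT, LT and ST, with cytotoxicity read by fluorescence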
# [11] = molecular target: T4, Mannose-6-phosphate isomerase (Homo sapiens, UniProt P34949); test: MPI inhibition at elevated mannose 6-phosphate – biochemical, fluorescence intensity, high mannose 6-phosphate, primary screen (AID 1220)
# T4 sequence (P34949 whole entry): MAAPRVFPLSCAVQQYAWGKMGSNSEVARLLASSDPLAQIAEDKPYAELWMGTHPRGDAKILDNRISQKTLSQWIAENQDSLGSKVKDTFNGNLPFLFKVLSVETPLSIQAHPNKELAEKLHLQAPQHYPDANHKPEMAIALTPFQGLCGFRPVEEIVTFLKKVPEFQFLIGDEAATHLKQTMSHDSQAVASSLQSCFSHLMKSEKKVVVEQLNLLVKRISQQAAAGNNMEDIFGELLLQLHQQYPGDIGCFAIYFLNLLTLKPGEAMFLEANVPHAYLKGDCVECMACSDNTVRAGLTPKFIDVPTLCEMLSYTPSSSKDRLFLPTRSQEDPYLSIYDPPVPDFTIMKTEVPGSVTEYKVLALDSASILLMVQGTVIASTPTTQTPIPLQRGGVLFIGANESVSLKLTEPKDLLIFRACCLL
# [12] = Fluorescence-based cell-based high throughput dose response assay for inhibitors of the interaction of nucleotide-binding oligomerization domain containing 2 (NOD2) and the receptor-interacting serine-threonine kinase 2 (RIPK2).; assay type: functional; details: Homo sapiens
# J774.A1 = test: Confirmation of image-based Screening Assay for Inhibitors of Phagocytosis. [Related pubchem assays (depositor defined):AID1029, AID1643]; assay type: functional, cell-based; details: Mus musculus
# BJ [13] = test: cells; assay type: functional, cell-based; details: Homo sapiens
# [14] = DRD fibroblast viability loss – cell-based, non-viral oncogenic, luminescence, dose response (AID 1934); assay type: functional; details: Homo sapiens
# BJ [15] = test: BJ-TERT-LT-ST fibroblast viability loss – cell-based, RAS-independent, luminescence, dose response (AID 1935); assay type: functional; details: Homo sapiens;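 note: BJ fibroblasts immortalized with TERT plus LT and ST oncogenes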
# [16] = molecular target: T4, Mannose-6-phosphate isomerase; test: MPI enzyme activity inhibition – biochemical, fluorescence intensity, coupled assay, primary screen (AID 1209)
# BJ [17] = test: BJ-TERT fibroblast viability loss – cell-based, RAS-independent, luminescence, dose response (AID 1933); assay type: functional; details: Homo sapiens
# [18] = molecular target: T5, Dual specificity protein phosphatase 3 (Homo sapiens, UniProt P51452); test: SAR VHR1 Fluorescent Assay for In Vitro dose response studies Set 2. [Related pubchem assays (depositor defined):AID1654, AID1661, AID1878]; assay type: functional
# T5 sequence (P51452 whole entry): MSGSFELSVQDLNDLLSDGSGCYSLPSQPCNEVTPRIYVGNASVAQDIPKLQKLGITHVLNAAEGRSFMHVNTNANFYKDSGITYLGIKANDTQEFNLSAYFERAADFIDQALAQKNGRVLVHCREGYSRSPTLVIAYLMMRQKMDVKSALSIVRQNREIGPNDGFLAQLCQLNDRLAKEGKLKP
# [19] = molecular target: T6, Dual specificity protein phosphatase 6 (Rattus norvegicus, UniProt Q64346); assay type: functional
# T6 sequence (Q64346 whole entry): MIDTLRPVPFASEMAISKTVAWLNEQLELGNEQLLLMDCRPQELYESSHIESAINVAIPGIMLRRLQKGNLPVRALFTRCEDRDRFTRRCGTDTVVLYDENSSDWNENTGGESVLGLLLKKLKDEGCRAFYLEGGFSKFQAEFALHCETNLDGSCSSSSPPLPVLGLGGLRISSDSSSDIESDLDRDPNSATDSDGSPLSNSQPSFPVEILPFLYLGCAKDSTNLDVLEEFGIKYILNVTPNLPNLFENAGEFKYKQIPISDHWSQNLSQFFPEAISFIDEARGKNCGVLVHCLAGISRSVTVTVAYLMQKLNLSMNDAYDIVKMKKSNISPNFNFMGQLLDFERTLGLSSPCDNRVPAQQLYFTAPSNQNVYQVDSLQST
# [20] = molecular target: T7, Tyrosine-protein phosphatase non-receptor type 7 (Homo sapiens, UniProt P35236); test: redox-active compounds inhibiting HePTP phosphatase – biochemical, fluorescence, mechanism study (AID 2068); assay type: functional
# T7 sequence (P35236 whole entry): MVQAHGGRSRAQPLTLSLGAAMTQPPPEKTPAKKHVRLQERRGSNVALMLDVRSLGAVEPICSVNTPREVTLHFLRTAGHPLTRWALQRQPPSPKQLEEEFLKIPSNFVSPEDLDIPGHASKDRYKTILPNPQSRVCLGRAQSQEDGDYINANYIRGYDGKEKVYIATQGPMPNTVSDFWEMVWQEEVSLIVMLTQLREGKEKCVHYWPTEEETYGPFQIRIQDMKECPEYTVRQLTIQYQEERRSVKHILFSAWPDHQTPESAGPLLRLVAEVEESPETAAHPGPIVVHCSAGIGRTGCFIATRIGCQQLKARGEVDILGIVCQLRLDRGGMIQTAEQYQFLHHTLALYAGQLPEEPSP
# [21] = molecular target: T5, Dual specificity protein phosphatase 3; test: SAR VHR1 Fluorescent Assay for In Vitro dose response studies. [Related pubchem assays (depositor defined):AID1654, AID1661, AID1878, AID1992, AID2004, AID2070, AID2085]; assay type: functional
# [22] = molecular target: T5, Dual specificity protein phosphatase 3; test: SAR VHR1 absorbance Assay for In Vitro dose response studies. [Related pubchem assays (depositor defined):AID1654, AID1661, AID1878, AID1992, AID2004]
# [23] = molecular target: T7, Tyrosine-protein phosphatase non-receptor type 7; test: SAR analysis of chemical inhibitors of HePTP using a Fluorescent assay - Set 2. [Related pubchem assays (depositor defined):AID1059, AID1077, AID1661, AID2085, AID521]; assay type: functional
# [24] = molecular target: T6, Dual specificity protein phosphatase 6; test: SAR analysis of inhibitors of MKP-3 - Set 2. [Related pubchem assays (depositor defined):AID1055, AID1661, AID425, AID553, AID566]; assay type: functional
# [25] = molecular target: Polyadenylate-binding protein 1 (Homo sapiens, UniProt P11940); test: PABP inhibition in translation initiation, SAR follow-up (AID 435018); assay type: functional
# Chain of Polyadenylate-binding protein 1 (P11940 whole entry): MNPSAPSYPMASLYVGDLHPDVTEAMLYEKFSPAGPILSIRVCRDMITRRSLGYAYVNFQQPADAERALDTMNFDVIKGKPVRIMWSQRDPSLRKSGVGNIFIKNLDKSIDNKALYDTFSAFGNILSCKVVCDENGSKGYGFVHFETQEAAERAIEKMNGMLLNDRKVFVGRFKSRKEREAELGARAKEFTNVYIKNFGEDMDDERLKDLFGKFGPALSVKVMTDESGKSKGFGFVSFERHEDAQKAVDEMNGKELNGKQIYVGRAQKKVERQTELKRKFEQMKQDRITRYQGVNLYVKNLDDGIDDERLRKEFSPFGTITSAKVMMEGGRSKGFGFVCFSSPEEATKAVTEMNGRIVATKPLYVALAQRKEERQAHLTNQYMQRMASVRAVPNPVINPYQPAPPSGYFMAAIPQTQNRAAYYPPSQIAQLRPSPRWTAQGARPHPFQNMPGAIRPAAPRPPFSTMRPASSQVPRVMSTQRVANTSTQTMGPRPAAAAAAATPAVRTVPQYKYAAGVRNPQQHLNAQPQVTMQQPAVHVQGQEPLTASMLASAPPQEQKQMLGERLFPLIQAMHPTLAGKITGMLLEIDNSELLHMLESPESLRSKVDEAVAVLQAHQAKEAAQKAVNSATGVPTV
# [26] = molecular target: Eukaryotic translation initiation factor 4H (Homo sapiens, UniProt Q15056); test: inhibitors of translation initiation factor eIF4H – SAR follow-up (AID 435011); assay type: functional
structure (smiles),measurement,setting,value
CC(=O)Oc1c(/C=C(\C#N)C(N)=O)[nH]c2ccccc12,EC50,[1],20.5 µM (inactive)
same,EC50,[2],> 79.4 µM (not active)
same,AC50,[3],> 380 µM (inconclusive)
same,EC50,Protein RecA,0.0314 µM (active)
same,EC50,[4],> 99 µM (inactive)
same,EC50,[5],> 99 µM (inactive)
same,CC50,Vero,> 40 µM (active)
same,IC50,[6],> 300 µM (active)
same,IC50,Large T antigen,22.8 µM (active)
same,EC50,[7],22.6 µM (not active)
CC1=CC(=O)C=C(C)C1=NOS(=O)(=O)c1ccccc1,AC50,[8],0.928 µM (active)
same,Absolute IC50 (XBP1),X-box-binding protein 1,10 µM
same,IC50,[9],165 µM (active)
same,EC50,BJ [10],1.35 µM (inconclusive)
same,IC50,[11],47.3 µM (active)
same,IC50,[12],5.52 µM (active)
same,IC50,J774.A1,0.47 µM (active)
same,EC50,BJ [13],4.78 µM (active)
same,EC50,[14],7.26 µM (active)
same,EC50,BJ [15],5.67 µM (inconclusive)
same,IC50,[16],14.4 µM (active)
same,EC50,BJ [17],4.5 µM (active)
CCOc1ccc(-n2c(N)c(C(=O)N3CCN(C)CC3)sc2=S)cc1,IC50,[18],> 100 µM (inactive)
same,IC50,[19],> 99 µM (inactive)
same,IC50,[20],> 100 µM (inactive)
same,IC50,[21],> 99 µM (inactive)
same,IC50,[22],> 100 µM (inactive)
same,IC50,[23],> 100 µM (inactive)
same,IC50,[24],> 100 µM (inactive)
O=C(Nc1ccccc1)C1CCN(C(=O)c2cccs2)CC1,IC50,[25],7.49 µM (active)
same,IC50,[26],21.4 µM (active)
